US20180185408A1, “ANTIFUNGAL NYLON-3 POLYMERS AND COMBINATION THERAPY USING THEM TO TREAT FUNGAL INFECTIONS” (priority 2016, published 2018)
Converted amounts (≈) assume the structure as drawn. “And” between values parts separate entries of the source, which are not always exact repeats. Equal values may be shown once. Read-outs that look alike come from different tables or passages of the source.

Legend:
Aspergillus terreus = test: microbe, parasite or virus in culture
Aspergillus fumigatus = test: microbe, parasite or virus in culture
filamentous fungi = test: MIC100 against non-Aspergillus filamentous fungi (CLSI M38-A2); assay type: cell-based

CCC(C)n1ncn(-c2ccc(N3CCN(c4ccc(OCC5COC(Cn6cncn6)(c6ccc(Cl)cc6Cl)O5)cc4)CC3)cc2)c1=O (centres unmarked) [Itraconazole, itraconazole]
MIC (Aspergillus terreus): 1.4 µM (≈ 0.988 µg/mL) | MIC (Aspergillus terreus; 48 h): 1 µg/mL and 1.4 µM | MIC (Aspergillus fumigatus; 48 h, A. fumigatus AF293, visually, 1 × 10^5 cells/mL, 35° C.): 1 µg/mL and 1.4 µM | MIC (Aspergillus fumigatus; 48 h, A. fumigatus CEA10, visually, 1 × 10^5 cells/mL, 35° C.): > 1 µg/mL and > 1.4 µM | MIC (Aspergillus fumigatus; 48 h, A. fumigatus F11628, visually, 1 × 10^5 cells/mL, 35° C.): 48 µg/mL and 68.5 µM | MIC (Aspergillus fumigatus; 48 h, A. fumigatus F16216, visually, 1 × 10^5 cells/mL, 35° C.): 32 µg/mL and 45.3 µM | MIC (Aspergillus fumigatus; A. fumigatus AF293): 1.4 µM (≈ 0.988 µg/mL) | MIC (Aspergillus fumigatus; A. fumigatus CEA10): > 1.4 µM | MIC (Aspergillus fumigatus; A. fumigatus F11628): 68 µM (≈ 48 µg/mL) | MIC (Aspergillus fumigatus; A. fumigatus F16216): 45.3 µM (≈ 32 µg/mL) | MIC (Aspergillus fumigatus; azole resistant strain F11628): > 45 µM | MIC (Aspergillus fumigatus; strain F16216): 45.3 µM (≈ 32 µg/mL) | MIC (filamentous fungi; Penicillium expansum): 1 µg/mL (≈ 1.42 µM) | MIC (filamentous fungi; Talaromyces marneffei): 0.125 µg/mL (≈ 0.177 µM)
